Experimental data published in patent US10093653B2, “Vitamin D receptor-coregulator inhibitors” (UWM Research Foundation, Inc., priority 2011, dated 2018).
Values after ≈ are worked out from the molar mass of the structure shown.

Legend:
TRPV6 in DU145 cells = experiment: TRPV6 expression, semi-quantitative RT-PCR; format: cell-based; conditions: 20 nM
CYP24A1 = CYP24A1 expression levels; format: cell-based; conditions: compound in presence and absence of 1,25-(OH)2D3
[1] = PAMPA
HEK293T cells = experiment: Toxicity by Cell-Titer Glo after the FRET assay; format: cell-based; conditions: for Toxicity (%): Conc. 62.5 μM
[2] = 12 h, pH 7.4
OVCAR-8 = experiment: Cytotoxicity, MTS assay; format: cell-based; conditions: OVCAR-8, within 48 hours
SKOV-3 cells = experiment: Western blots for phospho-p38 MAPkinase and phospho SAPK/JNK; format: cell-based; conditions: SKOV-3, 25 uM, within 24 hours
Text: Vitamin-d/VDR signaling protects the cancer cells from reactive oxygen species (ROS) induced cellular damages.

SKOV-3 = experiment: Cytotoxicity, MTS assay; format: cell-based; conditions: SKOV-3, within 48 hours
VDR in SKOV-3 cells = experiment: VDR expression, western blotting of whole cell lysate; format: cell-based; conditions: SKOV-3, 24 hours; 31b 25 and 50 uM, 32b 50 uM
Experimental: Expression of VDR was analyzed by western blotting of whole cell lysate using monoclonal antibody against VDR (Neomarker, Calif. cat no-RT-200PO).

ECC-1 = experiment: Cytotoxicity, MTS assay; format: cell-based; conditions: ECC-1 endometrial cancer cell-line, within 48 hours
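Throughout, for Permeability Log(Pe): passive permeability measured by parallel artificial membrane permeability assay, each experiment run in triplicate.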
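Throughout, for Permeability values (log Pe) of standards: passive permeability measured by parallel artificial membrane permeability assay, each experiment run in triplicate.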

| Permeability Log(Pe) [1] [cm/s] | Solubility [2] [µM] | Compound | further results |
| --- | --- | --- | --- |
| −6.00 | 252.9 (≈ 79 µg/mL) | Cc1[nH]c2ccccc2c1C(Nc1ccccc1)c1ccccc1 (stereo not drawn) [Compound 30a, N-((2-methyl-1H-indol-3-yl)(phenyl)methyl)aniline] | – |
| −6.03 | 93.9 (≈ 32.6 µg/mL) | Cc1[nH]c2ccccc2c1C(Nc1ccccc1)c1ccc(Cl)cc1 (stereo not drawn) [Compound 30b, N-((4-chlorophenyl)(2-methyl-1H-indol-3-yl)methyl)aniline] | – |
| −6.10 | 237.5 (≈ 81.3 µg/mL) | COc1ccc(C(Nc2ccccc2)c2c(C)[nH]c3ccccc23)cc1 (stereo not drawn) [Compound 30c, N-((4-methoxyphenyl)(2-methyl-1H-indol-3-yl)methyl)aniline] | – |
| −6.34 | 175.1 (≈ 57.2 µg/mL) | Cc1ccc(C(Nc2ccccc2)c2c(C)[nH]c3ccccc23)cc1 (stereo not drawn) [Compound 30d, N-((2-methyl-1H-indol-3-yl)(p-tolyl)methyl)aniline] | – |
| −6.88 | 157.7 (≈ 56.1 µg/mL) | Cc1[nH]c2ccccc2c1C(Nc1ccccc1)c1ccc(N(C)C)cc1 (stereo not drawn) [Compound 30e, N,N-dimethyl-4-((2-methyl-1H-indol-3-yl)(phenylamino)methyl)aniline] | – |
| −6.08 | 117.6 (≈ 42 µg/mL) | Cc1[nH]c2ccccc2c1C(Nc1ccccc1)c1ccc([N+](=O)[O-])cc1 (stereo not drawn) [Compound 30f, N-((2-methyl-1H-indol-3-yl)(4-nitrophenyl)methyl)aniline] | – |
| −6.40 | 189.0 (≈ 47.3 µg/mL) | Cc1[nH]c2ccccc2c1C(C)Nc1ccccc1 (stereo not drawn) [Compound 30g, N-(1-(2-methyl-1H-indol-3-yl)ethyl)aniline] | – |
| −6.30 | 67.3 (≈ 24.4 µg/mL) | Cc1[nH]c2ccccc2c1C(Nc1ccccc1)c1ccc2ccccc2c1 (stereo not drawn) [Compound 30h, N-((2-methyl-1H-indol-3-yl)(naphthalen-2-yl)methyl)aniline] | – |
| −6.41 | 31.6 (≈ 11 µg/mL) | Cc1[nH]c2ccccc2c1C(Nc1ccccc1)c1ccccc1Cl (stereo not drawn) [Compound 31a, N-((2-chlorophenyl)(2-methyl-1H-indol-3-yl)methyl)aniline] | – |
| −6.30 | 84.2 (≈ 31.7 µg/mL) | COc1ccc(NC(c2ccccc2Cl)c2c(C)[nH]c3ccccc23)cc1 (stereo not drawn) [Compound 31c, N-((2-chlorophenyl)(2-methyl-1H-indol-3-yl)methyl)-4-methoxyaniline] | – |
| −6.45 | 35.9 (≈ 13 µg/mL) | Cc1ccc(NC(c2ccccc2Cl)c2c(C)[nH]c3ccccc23)cc1 (stereo not drawn) [Compound 31d, N-((2-chlorophenyl)(2-methyl-1H-indol-3-yl)methyl)-4-methylaniline] | – |
| −7.28 | 21.0 (≈ 8.19 µg/mL) | Cc1[nH]c2ccccc2c1C(Nc1ccc(N(C)C)cc1)c1ccccc1Cl (stereo not drawn) [Compound 31e, N^1-((2-chlorophenyl)(2-methyl-1H-indol-3-yl)methyl)-N^4,N^4-dimethylbenzene-1,4-diamine] | – |
| −7.60 | 4.9 (≈ 1.92 µg/mL) | Cc1[nH]c2ccccc2c1C(Nc1ccc([N+](=O)[O-])cc1)c1ccccc1Cl (stereo not drawn) [Compound 31f, N-((2-chlorophenyl)(2-methyl-1H-indol-3-yl)methyl)-4-nitroaniline] | – |
| −6.22 | 59.7 (≈ 22.5 µg/mL) | COc1ccccc1NC(c1ccccc1Cl)c1c(C)[nH]c2ccccc12 (stereo not drawn) [Compound 31h, N-((2-chlorophenyl)(2-methyl-1H-indol-3-yl)methyl)-2-methoxyaniline] | – |
| −6.58 | 15.3 (≈ 5.31 µg/mL) | Cn1cc(C(Nc2ccccc2)c2ccccc2Cl)c2ccccc21 (stereo not drawn) [Compound 32a, N-((2-chlorophenyl)(1-methyl-1H-indol-3-yl)methyl)aniline] | – |
| −6.51 | 52.3 (≈ 17.4 µg/mL) | Clc1ccccc1C(Nc1ccccc1)c1c[nH]c2ccccc12 (stereo not drawn) [Compound 32b, N-((2-chlorophenyl)(1H-indol-3-yl)methyl)aniline] | Cytotoxicity, cell viability (OVCAR-8): did not show any cytotoxicity; Activation of SAPK/JNK (SKOV-3 cells): did not cause the similar activation; Activation of p38 MAPkinase (SKOV-3 cells): did not cause the similar activation; Cytotoxicity, cell viability (SKOV-3): did not show any cytotoxicity; Expression of VDR (VDR in SKOV-3 cells): downregulation of VDR; Cytotoxicity, cell viability (ECC-1): did not show any cytotoxicity |
| −6.89 | 11.8 (≈ 4.29 µg/mL) | Cc1[nH]c2ccccc2c1C(Sc1ccccc1)c1ccccc1Cl (stereo not drawn) [Compound 32c, 3-((2-chlorophenyl)(phenylthio)methyl)-2-methyl-1H-indole] | – |

The next lines start with the molecule.

| Compound | Permeability Log(Pe) [1] [cm/s] | Solubility [2] [µM] | further results |
| --- | --- | --- | --- |
| C=C1/C(=C\C=C2/CCC[C@]3(C)[C@@H]([C@H](C)CCCC(C)(C)O)CC[C@@H]23)C[C@@H](O)C[C@@H]1O [1,25-(OH)2D3, 1,25-dihydroxyvitamin D3, reference compound] | – | – | TRPV6 expression with VDR ligand (TRPV6 in DU145 cells): up-regulated |
| c1ccc(NC(c2ccccc2)c2c[nH]c3ccccc23)cc1 (stereo not drawn) [Compound 1, N-((1H-indol-3-yl)(phenyl)methyl)aniline] | – | – | Modulation of CYP24A1 expression (CYP24A1): no modulation of CYP24A1 |
| COc1ccc(C(Nc2ccccn2)c2c(C)[nH]c3ccccc23)cc1 (stereo not drawn) [Compound 11] | −6.25 | – | Toxicity (%) (HEK293T cells): 100% |
| Cc1ccc(C(Nc2ccccn2)c2c(C)[nH]c3ccccc23)cc1 (stereo not drawn) [Compound 12] | −6.10 | – | Toxicity (%) (HEK293T cells): 90% |
| COc1cccc(C(Nc2ccccn2)c2c(C)[nH]c3ccccc23)c1 (stereo not drawn) [Compound 13] | −6.12 | – | Toxicity (%) (HEK293T cells): 60% |
| Cc1[nH]c2ccccc2c1C(Nc1ccccn1)c1cccc(Br)c1 (stereo not drawn) [Compound 14] | −6.11 | – | Toxicity (%) (HEK293T cells): 100% |
| Cc1[nH]c2ccccc2c1C(Nc1ccccn1)c1ccc(Br)cc1 (stereo not drawn) [Compound 15] | −6.01 | – | – |
| Cc1[nH]c2ccccc2c1C(Nc1ccccn1)c1ccc(F)cc1 (stereo not drawn) [Compound 16] | −6.05 | – | Toxicity (%) (HEK293T cells): 100% |
| Cc1[nH]c2ccccc2c1C(Nc1ccccn1)c1ccc(C(C)C)cc1 (stereo not drawn) [Compound 17] | −6.12 | – | Toxicity LD50 (given instead of percentages) (HEK293T cells; footnote b, highly active compounds): 18.0^b μM |
| Cc1[nH]c2ccccc2c1C(Nc1ccccn1)c1cccc(Cl)c1 (stereo not drawn) [Compound 18] | −6.01 | – | Toxicity (%) (HEK293T cells): 100% |
| Cc1[nH]c2ccccc2c1C(Nc1ccccn1)c1cccc(F)c1 (stereo not drawn) [Compound 19] | −5.99 | – | – |
| CNC(=C[N+](=O)[O-])NCCSCc1ccc(CN(C)C)o1 [Ranitidine, reference compound] | – | – | Permeability values (log Pe) of standards [1]: −8.02±0.074 cm/s |
| NC(=O)N1c2ccccc2C=Cc2ccccc21 [carbamazepine, reference compound] | – | – | Permeability values (log Pe) of standards [1]: −6.81±0.0011 cm/s |
